The assay deals with human Nav 1.8 (Homo sapiens, UniProt Q9Y5Y9). Kind of assay: E-VIPR assay detecting and measuring Nav inhibition (HEK cells expressing truncated human Nav 1.8). The class given is cell-based. To be noted: read-out: IC50. The method in brief: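 HEK cells expressing truncated human Nav1.8, transduced with KIR2.1 BacMam, were loaded with CC2-DMPE/DiSBAC6(3) FRET dyes and tested under electrical stimulation (E-VIPR). Compounds were run as 11-point 3-fold dilutions, top 300 nM final, 0.625% DMSO, with or without 25% human serum.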

Where [1] appears, read: in the Absence of Human Serum in the E-VIPR Assay.
Setting [2] is: in the Presence of Human Serum in the E-VIPR Assay.

pIC50: −log10 of the molar value. Where two headings read alike, the source gives them in different places.

Chain of human Nav 1.8 (Q9Y5Y9 whole entry, looked up, the tested form may be a part): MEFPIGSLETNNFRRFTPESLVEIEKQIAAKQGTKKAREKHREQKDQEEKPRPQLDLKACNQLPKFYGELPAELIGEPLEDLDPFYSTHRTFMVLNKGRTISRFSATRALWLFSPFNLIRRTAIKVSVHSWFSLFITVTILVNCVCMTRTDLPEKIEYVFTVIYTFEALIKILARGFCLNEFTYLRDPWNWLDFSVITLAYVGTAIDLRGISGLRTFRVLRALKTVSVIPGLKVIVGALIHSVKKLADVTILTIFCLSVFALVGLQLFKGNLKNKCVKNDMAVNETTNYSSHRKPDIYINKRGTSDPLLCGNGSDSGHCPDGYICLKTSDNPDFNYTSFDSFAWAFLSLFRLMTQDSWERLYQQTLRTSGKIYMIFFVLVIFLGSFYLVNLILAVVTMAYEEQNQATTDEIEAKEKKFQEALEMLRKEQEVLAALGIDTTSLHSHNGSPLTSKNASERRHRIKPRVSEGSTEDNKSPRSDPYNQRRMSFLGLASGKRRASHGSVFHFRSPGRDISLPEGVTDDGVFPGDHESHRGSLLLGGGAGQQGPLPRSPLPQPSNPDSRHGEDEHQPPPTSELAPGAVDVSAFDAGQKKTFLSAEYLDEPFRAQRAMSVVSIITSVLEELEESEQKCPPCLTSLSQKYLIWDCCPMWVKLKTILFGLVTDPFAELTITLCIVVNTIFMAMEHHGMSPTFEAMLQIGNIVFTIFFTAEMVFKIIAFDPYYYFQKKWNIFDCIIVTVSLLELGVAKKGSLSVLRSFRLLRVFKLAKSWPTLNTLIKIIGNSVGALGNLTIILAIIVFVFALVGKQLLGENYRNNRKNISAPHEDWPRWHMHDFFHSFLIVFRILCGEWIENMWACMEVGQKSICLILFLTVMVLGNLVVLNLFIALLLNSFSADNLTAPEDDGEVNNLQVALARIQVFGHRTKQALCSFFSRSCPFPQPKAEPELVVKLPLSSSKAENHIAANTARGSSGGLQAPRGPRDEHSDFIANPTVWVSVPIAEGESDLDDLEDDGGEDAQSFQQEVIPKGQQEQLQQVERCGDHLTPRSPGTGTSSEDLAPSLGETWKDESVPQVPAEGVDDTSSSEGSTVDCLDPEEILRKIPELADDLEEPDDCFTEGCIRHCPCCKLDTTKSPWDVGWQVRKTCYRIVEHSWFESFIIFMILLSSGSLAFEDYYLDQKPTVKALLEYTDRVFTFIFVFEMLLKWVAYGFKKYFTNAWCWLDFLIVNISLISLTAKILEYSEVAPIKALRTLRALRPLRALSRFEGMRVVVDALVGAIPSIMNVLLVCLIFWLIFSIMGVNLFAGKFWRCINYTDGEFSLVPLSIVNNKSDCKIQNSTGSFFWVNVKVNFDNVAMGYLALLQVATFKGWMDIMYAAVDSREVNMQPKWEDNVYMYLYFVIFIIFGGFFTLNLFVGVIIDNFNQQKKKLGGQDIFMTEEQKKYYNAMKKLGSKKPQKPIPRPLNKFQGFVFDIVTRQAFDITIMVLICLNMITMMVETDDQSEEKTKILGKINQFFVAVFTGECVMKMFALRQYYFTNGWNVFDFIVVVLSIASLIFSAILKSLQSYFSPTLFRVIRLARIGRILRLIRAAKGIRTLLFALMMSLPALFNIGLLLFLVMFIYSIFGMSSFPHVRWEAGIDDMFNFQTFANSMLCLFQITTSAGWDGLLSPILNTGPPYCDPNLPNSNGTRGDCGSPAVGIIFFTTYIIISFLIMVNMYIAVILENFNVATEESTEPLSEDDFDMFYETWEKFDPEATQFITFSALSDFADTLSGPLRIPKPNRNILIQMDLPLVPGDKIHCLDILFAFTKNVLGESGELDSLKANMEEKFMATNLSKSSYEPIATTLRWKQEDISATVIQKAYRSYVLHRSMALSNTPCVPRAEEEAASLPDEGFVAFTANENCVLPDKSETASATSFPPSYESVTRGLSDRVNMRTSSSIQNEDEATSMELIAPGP

With `Cc1c([C@H]2[C@H](C(=O)Nc3ccnc(C(N)=O)c3)O[C@@](C)(C(F)(F)F)[C@H]2C)ccc(F)c1F` (stereo in doubt) [Compound 132, rel-(2R,3S,4S,5R)-4-[[3-(3,4-difluoro-2-methyl-phenyl)-4,5-dimethyl-5-(trifluoromethyl)tetrahydrofuran-2-carbonyl]amino]pyridine-2-carboxamide], under setting [1], the negative logarithm of the IC50 (pIC50) is more than 8.00.
Regarding `C[C@H]1[C@@H](c2ccc(F)c(F)c2OC(F)F)[C@H](C(=O)Nc2ccnc(C(N)=O)c2)O[C@@]1(C)C(F)(F)F` (racemic) [Compound 115, rac-(2R,3S,4S,5R)-4-[[3-[2-(difluoromethoxy)-3,4-difluoro-phenyl]-4,5-dimethyl-5-(trifluoromethyl)tetrahydrofuran-2-carbonyl]amino]pyridine-2-carboxamide], the pIC50 under setting [2] was more than 8.00.
`COc1c([C@H]2[C@H](C(=O)Nc3cc(C(N)=O)ncn3)O[C@@](C)(C(F)(F)F)[C@H]2C)ccc(F)c1F` [Compound 121, 6-[[(2R,3S,4S,5R)-3-(3,4-difluoro-2-methoxy-phenyl)-4,5-dimethyl-5-(trifluoromethyl)tetrahydrofuran-2-carbonyl]amino]pyrimidine-4-carboxamide]: the pIC50 under setting [1] is more than 8.00.
`COc1c([C@@H]2[C@@H](C(=O)Nc3ccnc(C(N)=O)c3)OC(C)(C)[C@H]2C)ccc(F)c1F` (single isomer, unassigned) [Compound 101]: the pIC50 under setting [2] is less than 6.00.
The same measure, in the same setting: to `COc1c([C@H]2[C@@H](C(=O)Nc3ccnc(C(N)=O)c3)OC(C)(C)[C@@H]2C)ccc(F)c1F` (racemic) [Compound 100, rac-(2S,3S,4R)-4-[[3-(3,4-difluoro-2-methoxy-phenyl)-4,5,5-trimethyl-tetrahydrofuran-2-carbonyl]amino]pyridine-2-carboxamide] belongs less than 6.00; to `Cc1c(F)ccc([C@H]2C[C@@](C)(C(F)(F)F)O[C@@H]2C(=O)Nc2ccnc(C(N)=O)c2)c1F` (single isomer, unassigned) [Compound 75], less than 6.00.
Turning to `COc1c([C@H]2[C@H](C(=O)Nc3ccnc(C(N)=O)c3)O[C@@](C)(C(F)(F)F)[C@H]2C)cc(Cl)c(F)c1F` [Compound 152, 4-[[(2R,3S,4S,5R)-3-(5-chloro-3,4-difluoro-2-methoxy-phenyl)-4,5-dimethyl-5-(trifluoromethyl)tetrahydrofuran-2-carbonyl]amino]pyridine-2-carboxamide], the pIC50 under setting [1] is more than 8.00.
For `CC(C)Oc1c([C@@H]2[C@@H](C(=O)Nc3ccnc(C(N)=O)c3)O[C@](C)(C(F)(F)F)[C@@H]2C)ccc(F)c1F` (single isomer, unassigned) [Compound 88], the pIC50 under setting [2] is less than 6.00.
Still for that read-out and setting: to `CNC(=O)c1cc(NC(=O)[C@@H]2O[C@@](C)(C(F)(F)F)[C@@H](C)[C@H]2c2ccc(F)cc2OC(F)F)ccn1` (single isomer, unassigned) [Compound 30] belongs 6.00 to 7.00; to `COc1c([C@H]2C[C@@](C)(C(F)(F)F)O[C@@H]2C(=O)Nc2ccc(F)c(C(N)=O)c2)ccc(F)c1F` (single isomer, unassigned) [Compound 46], less than 6.00.
On the same count and under the same terms, to `COc1c([C@@H]2C[C@](C)(C(F)(F)F)O[C@H]2C(=O)Nc2cc[n+]([O-])c(C(N)=O)c2)ccc(F)c1F` (relative stereo) [Compound 54, rel-(2R,3S,5R)-4-[[3-(3,4-difluoro-2-methoxy-phenyl)-5-methyl-5-(trifluoromethyl)tetrahydrofuran-2-carbonyl]amino]-1-oxido-pyridin-1-ium-2-carboxamide] belongs 6.00 to 7.00; to `COc1c([C@@H]2C[C@](C)(C(C)(F)F)O[C@H]2C(=O)Nc2ccnc(C(N)=O)c2)ccc(F)c1F` (single isomer, unassigned) [Compound 86], less than 6.00.

Source of the values: patent publication US11919887B2, “Substituted tetrahydrofurans as modulators of sodium channels” (Vertex Pharmaceuticals Incorporated, priority 2019, dated 2024).
